Results from patent US5286648A, “A84575 antibiotics” (Eli Lilly and Company, priority 1991, dated 1994).
Converted amounts (≈) assume the structure as drawn.

Legend:
[1] = system: Peptococcus prevoti; experiment: Susceptibility of anaerobic cocci isolates, agar dilution (Table 16); format: cell-based; details: 24 hr, A84575: 3 different lots
Excerpt: (§1) *MIC Determined by the AgarDilution Method, Endpoints Read After 24Hr.

[2] = system: Propionibacterium acnes; experiment: Susceptibility of anaerobic bacterial isolates, agar dilution (Table 13); format: cell-based; details: Cutibacterium acnes, 24 h
[3] = system: Propionibacterium acnes; experiment: Susceptibility of Propionibacterium acnes isolates, agar dilution (Table 15); format: cell-based; details: Cutibacterium acnes, 24 h
[4] = system: Streptococcus aureus; experiment: In vivo activity, administered subcutaneously to mice (Table 17); details: sc
[5] = system: Peptococcus variabilis; experiment: Susceptibility of anaerobic cocci isolates, agar dilution (Table 16); format: cell-based; details: 24 h
[6] = system: Peptostreptococcus intermedius; experiment: Susceptibility of anaerobic bacterial isolates, agar dilution (Table 13); format: cell-based; details: 24 h
[7] = system: Hemophilus influenza; experiment: In vitro activity vs. Hemophilus influenza strains, broth dilution, Shadler broth + 5% fildes extract (Table 12); format: cell-based
Excerpt: ^1 Using brothdilution method and testing the strains with Shadler
broth +5% fildes extract

[8] = system: Peptococcus magnus; experiment: Susceptibility of anaerobic cocci isolates, agar dilution (Table 16); format: cell-based; details: Finegoldia magna, 24 h
[9] = system: Bacteroides malaninogenicus; experiment: Susceptibility of anaerobic bacterial isolates, agar dilution (Table 13); format: cell-based; details: 24 h
[10] = system: Peptococcus constellatus; experiment: Susceptibility of anaerobic cocci isolates, agar dilution (Table 16); format: cell-based; details: Streptococcus constellatus, 24 h
[11] = system: Streptococcus pneumoniae; experiment: In vivo activity, administered subcutaneously to mice (Table 17); details: sc, subcutaneous, LD challenge 587
[12] = system: Bacteroides vulgatis; experiment: Susceptibility of anaerobic bacterial isolates, agar dilution (Table 13); format: cell-based; details: 24 h
[13] = system: Peptostreptococcus anaerobius; experiment: Susceptibility of anaerobic cocci isolates, agar dilution (Table 16); format: cell-based; details: 24 h
[14] = system: S. sanguis; experiment: In vitro activity vs. miscellaneous Streptococcus strains, agar dilution, Mueller-Hinton agar (Table 9)
[15] = system: Clostridium difficile; experiment: Susceptibility of Clostridium difficile strains, agar dilution (Table 14); format: cell-based; details: Clostridioides difficile, 24 h
Excerpt: as §1

[16] = system: S. salivarius; experiment: In vitro activity vs. miscellaneous Streptococcus strains, agar dilution, Mueller-Hinton agar (Table 9)
[17] = system: Clostridium septicum; experiment: Susceptibility of anaerobic bacterial isolates, agar dilution (Table 13); format: cell-based; details: strain 1128, 24 hr, A84575: 3 different lots
Excerpt: as §1

[18] = system: Peptococcus prevoti; experiment: as above; format: cell-based; details: strain 1281; 24 hr; A84575: 3 different lots
Excerpt: as §1

[19] = system: Bacteroides fragilis; experiment: as above; format: cell-based
[20] = system: Streptococcus sp. (Group D); experiment: In vitro activity vs. Streptococcus sp. (Group D) strains, agar dilution, Mueller-Hinton agar (Table 8); format: cell-based
[21] = system: Peptostreptococcus anaerobium; experiment: Susceptibility of anaerobic bacterial isolates, agar dilution (Table 13); format: cell-based; details: 24 h
[22] = system: Streptococcus pyogenes; experiment: In vitro activity vs. Streptococcus pyogenes strains, agar dilution, Mueller-Hinton agar (Table 11)

Compound: CN[C@H](CC(C)C)C(=O)N[C@H]1C(=O)N[C@@H](CC(N)=O)C(=O)N[C@H]2C(=O)N[C@H]3C(=O)N[C@H](C(=O)N[C@H](C(=O)O)c4cc(O)cc(O)c4-c4cc3ccc4O)[C@H](O)c3ccc(c(Cl)c3)Oc3cc2cc(c3O[C@@H]2O[C@H](CO)[C@@H](O)[C@H](O)[C@H]2O[C@H]2C[C@](C)(N)[C@H](O)[C@H](C)O2)Oc2ccc(cc2Cl)[C@H]1O [Vancomycin]
- MIC ([1]; strain 1281, read-out: MIC): 2 µg/mL (≈ 1.38 µM)
- MIC ([1]; strain 1293): 2 µg/mL (≈ 1.38 µM)
- MIC ([1]; strain 1407): 2 µg/mL (≈ 1.38 µM)
- MIC [2]: 4 µg/mL (≈ 2.76 µM)
- MIC ([3]; strain #44, A84575: 3 different lots): 0.5 µg/mL (≈ 0.345 µM)
- MIC ([3]; strain #103, A84575: 3 different lots): 0.25 µg/mL (≈ 0.173 µM)
- MIC ([3]; strain #104, A84575: 3 different lots): 0.5 µg/mL (≈ 0.345 µM)
- MIC ([3]; strain #105, A84575: 3 different lots): 0.25 µg/mL (≈ 0.173 µM)
- MIC ([3]; strain #106, A84575: 3 different lots): 0.5 µg/mL (≈ 0.345 µM)
- MIC ([3]; strain #107, A84575: 3 different lots): 0.25 µg/mL (≈ 0.173 µM)
- MIC ([3]; strain #5170, A84575: 3 different lots): 0.25 µg/mL (≈ 0.173 µM)
- MIC ([3]; strain #5176, A84575: 3 different lots): 2 µg/mL (≈ 1.38 µM)
- MIC ([3]; strain #5187, A84575: 3 different lots): 0.5 µg/mL (≈ 0.345 µM)
- MIC ([3]; strain #5191, A84575: 3 different lots): 0.5 µg/mL (≈ 0.345 µM)
- MIC ([3]; strain #5197, A84575: 3 different lots): 0.5 µg/mL (≈ 0.345 µM)
- MIC ([3]; strain #5226, A84575: 3 different lots): 0.5 µg/mL (≈ 0.345 µM)
- MIC ([3]; strain #5227, A84575: 3 different lots): 0.25 µg/mL (≈ 0.173 µM)
- MIC ([3]; strain #5228, A84575: 3 different lots): 0.25 µg/mL (≈ 0.173 µM)
- MIC ([3]; strain #5229, A84575: 3 different lots): 0.25 µg/mL (≈ 0.173 µM)
- MIC ([3]; strain #5246, A84575: 3 different lots): 0.25 µg/mL (≈ 0.173 µM)
- MIC ([3]; strain #5260, A84575: 3 different lots): 0.5 µg/mL (≈ 0.345 µM)
- MIC ([3]; strain #5292, A84575: 3 different lots): 0.5 µg/mL (≈ 0.345 µM)
- MIC ([3]; strain #8586A, A84575: 3 different lots): 0.5 µg/mL (≈ 0.345 µM)
- ED50 [4]: 0.83 mg/kg
- MIC [5]: 0.125 µg/mL (≈ 0.0863 µM)
- MIC [6]: 1 µg/mL (≈ 0.69 µM)
- MIC ([7]; strain Astes): 64 µg/mL
- MIC ([7]; strain Bond): 64 µg/mL
- MIC ([7]; strain Bruno): 128 µg/mL
- MIC ([7]; strain Harper): 64 µg/mL
- MIC ([7]; strain Johnson): 64 µg/mL
- MIC ([7]; strain Lassig): 32 µg/mL
- MIC ([7]; strain Lawrence): 64 µg/mL
- MIC ([7]; strain Newton): 64 µg/mL
- MIC ([8]; strain 1401, A84575: 3 different lots): 0.125 µg/mL (≈ 0.0863 µM)
- MIC ([8]; strain 1421, A84575: 3 different lots): 0.5 µg/mL (≈ 0.345 µM)
- MIC ([8]; strain 29328, A84575: 3 different lots): 1 µg/mL (≈ 0.69 µM)
- MIC ([9]; strain 1856/28, A84575: 3 different lots): > 64 µg/mL
- MIC ([9]; strain 2736, A84575: 3 different lots): 16 µg/mL (≈ 11 µM)
- MIC [10]: 1 µg/mL (≈ 0.69 µM)
- ED50 [11]: 1.58 mg/kg
- MIC [12]: 8 µg/mL (≈ 5.52 µM)
- MIC ([13]; strain 8, A84575: 3 different lots): 1 µg/mL (≈ 0.69 µM)
- MIC ([13]; strain 52, A84575: 3 different lots): 1 µg/mL (≈ 0.69 µM)
- MIC ([13]; strain 59, A84575: 3 different lots): 0.25 µg/mL (≈ 0.173 µM)
- MIC ([13]; strain 1428, A84575: 3 different lots): 0.03 µg/mL (≈ 0.0207 µM)
- MIC ([13]; strain 1451, A84575: 3 different lots): 2 µg/mL (≈ 1.38 µM)
- MIC ([13]; strain 1477, A84575: 3 different lots): 2 µg/mL (≈ 1.38 µM)
- MIC ([14]; strain I-SSI-547): 0.5 µg/mL (≈ 0.345 µM)
- MIC ([14]; strain I-SSI-910): 0.5 µg/mL (≈ 0.345 µM)
- MIC ([14]; strain II-SSII-895): 0.5 µg/mL (≈ 0.345 µM)
- MIC ([14]; strain II-SSII-911): 1 µg/mL (≈ 0.69 µM)
- MIC ([15]; strain 78, A84575: 3 different lots): 4 µg/mL (≈ 2.76 µM)
- MIC ([15]; strain 107B, A84575: 3 different lots): 0.25 µg/mL (≈ 0.173 µM)
- MIC ([15]; strain 111F, A84575: 3 different lots): 1 µg/mL (≈ 0.69 µM)
- MIC ([15]; strain 1153, A84575: 3 different lots): 1 µg/mL (≈ 0.69 µM)
- MIC ([15]; strain 2634, A84575: 3 different lots): 0.5 µg/mL (≈ 0.345 µM)
- MIC ([15]; strain 3424-5B, A84575: 3 different lots): 1 µg/mL (≈ 0.69 µM)
- MIC ([15]; strain 3816, A84575: 3 different lots): 1 µg/mL (≈ 0.69 µM)
- MIC ([15]; strain 3950D, A84575: 3 different lots): 0.5 µg/mL (≈ 0.345 µM)
- MIC ([15]; strain 6890, A84575: 3 different lots): 0.5 µg/mL (≈ 0.345 µM)
- MIC ([15]; strain 8484, A84575: 3 different lots): 2 µg/mL (≈ 1.38 µM)
- MIC ([15]; strain A-194, A84575: 3 different lots): 1 µg/mL (≈ 0.69 µM)
- MIC ([15]; strain A-195, A84575: 3 different lots): 0.5 µg/mL (≈ 0.345 µM)
- MIC ([15]; strain A-196, A84575: 3 different lots): 0.5 µg/mL (≈ 0.345 µM)
- MIC ([15]; strain A-279, A84575: 3 different lots): 0.5 µg/mL (≈ 0.345 µM)
- MIC ([15]; strain A-280, A84575: 3 different lots): 1 µg/mL (≈ 0.69 µM)
- MIC ([15]; strain A-281, A84575: 3 different lots): 1 µg/mL (≈ 0.69 µM)
- MIC ([15]; strain WAL-2112, A84575: 3 different lots): 1 µg/mL (≈ 0.69 µM)
- MIC ([15]; strain WAL-3657, A84575: 3 different lots): 2 µg/mL (≈ 1.38 µM)
- MIC ([15]; strain WAL-4268, A84575: 3 different lots): 1 µg/mL (≈ 0.69 µM)
- MIC [16]: 1 µg/mL (≈ 0.69 µM)
- MIC [17]: 2 µg/mL (≈ 1.38 µM)
- MIC [18]: 4 µg/mL (≈ 2.76 µM)
- MIC ([19]; Bacteroides fragilis, 24 h): 16 µg/mL (≈ 11 µM)
- MIC ([19]; strain 1877, 24 hr, A84575: 3 different lots): 16 µg/mL (≈ 11 µM)
- MIC ([19]; strain 1936B, 24 hr, A84575: 3 different lots): 16 µg/mL (≈ 11 µM)
- MIC ([20]; strain 282): 1 µg/mL (≈ 0.69 µM)
- MIC ([20]; strain 8043): 1 µg/mL (≈ 0.69 µM)
- MIC ([20]; strain 9901): 2 µg/mL (≈ 1.38 µM)
- MIC ([20]; strain 9913): 1 µg/mL (≈ 0.69 µM)
- MIC ([20]; strain 9933 Beta): 4 µg/mL (≈ 2.76 µM)
- MIC ([20]; strain 9960): 4 µg/mL (≈ 2.76 µM)
- MIC ([20]; strain 12253F): 1 µg/mL (≈ 0.69 µM)
- MIC ([20]; strain 22521): 4 µg/mL (≈ 2.76 µM)
- MIC ([20]; strain M10): 4 µg/mL (≈ 2.76 µM)
- MIC ([20]; strain M11): 1 µg/mL (≈ 0.69 µM)
- MIC ([20]; strain M12): 4 µg/mL (≈ 2.76 µM)
- MIC ([20]; strain M13): 2 µg/mL (≈ 1.38 µM)
- MIC ([20]; strain M20): 1 µg/mL (≈ 0.69 µM)
- MIC ([20]; strain M21): 4 µg/mL (≈ 2.76 µM)
- MIC ([20]; strain M28): 4 µg/mL (≈ 2.76 µM)
- MIC ([20]; strain M36): 4 µg/mL (≈ 2.76 µM)
- MIC ([20]; strain M38): 1 µg/mL (≈ 0.69 µM)
- MIC ([20]; strain Shrigley): 2 µg/mL (≈ 1.38 µM)
- MIC ([20]; strain Van Almen): 4 µg/mL (≈ 2.76 µM)
- MIC ([20]; strain Vietnam): 2 µg/mL (≈ 1.38 µM)
- MIC [21]: 1 µg/mL (≈ 0.69 µM)
- MIC ([22]; ATCC12344, strain ATCC 12344): 1 µg/mL (≈ 0.69 µM)
- MIC ([22]; strain 9931): 0.5 µg/mL (≈ 0.345 µM)
- MIC ([22]; strain 10389): 0.5 µg/mL (≈ 0.345 µM)
- MIC ([22]; strain 12385): 2 µg/mL (≈ 1.38 µM)
- MIC ([22]; strain 12961): 1 µg/mL (≈ 0.69 µM)
- MIC ([22]; strain C203): 1 µg/mL (≈ 0.69 µM)
- MIC ([22]; strain DS663-72): 0.5 µg/mL (≈ 0.345 µM)
- MIC ([22]; strain HB93): 1 µg/mL (≈ 0.69 µM)
- MIC ([22]; strain K-1): 0.5 µg/mL (≈ 0.345 µM)
- MIC ([22]; strain K-2): 0.5 µg/mL (≈ 0.345 µM)
- MIC ([22]; strain K-3): 0.5 µg/mL (≈ 0.345 µM)
- MIC ([22]; strain K-4): 1 µg/mL (≈ 0.69 µM)
- MIC ([22]; strain K-5): 1 µg/mL (≈ 0.69 µM)
- MIC ([22]; strain K-6): 0.5 µg/mL (≈ 0.345 µM)
